Experiments:
Assay type in all cases: in vivo
Rape [1] = experiment: post-emergence herbicide test; conditions: post-emergence, 0.25 lb/A; read-out: % plant inhibition
In short: (§1)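 Seeds sown on compacted topsoil, covered, leveled; greenhouse, overhead or subirrigation. Plants 2–3 wk old → atomizer spray, 170.3 kPa, 1870 L/Ha, ~0.4% v/v emulsifier. Readout: % inhibition.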

Soybean [2] = experiment: post-emergence herbicide test; conditions: Glycine max, post-emergence, 0.25 lb/A; read-out: % plant inhibition
In short: as §1

Velvetleaf [3] = experiment: post-emergence herbicide test; conditions: Abutilon theophrasti, post-emergence, 0.25 lb/A; read-out: % plant inhibition
In short: as §1

Corn [4] = experiment: post-emergence herbicide test; conditions: Zea mays, post-emergence, 0.25 lb/A; read-out: % plant inhibition
In short: as §1

Wild Oats [5] = experiment: post-emergence herbicide test; conditions: Avena fatua, post-emergence, 0.25 lb/A; read-out: % plant inhibition
In short: as §1

Giant Foxtail [6] = experiment: post-emergence herbicide test; conditions: Setaria faberi, post-emergence, 0.25 lb/A; read-out: % plant inhibition
In short: as §1

Wheat [7] = experiment: post-emergence herbicide test; conditions: Triticum aestivum, post-emergence, 0.25 lb/A; read-out: % plant inhibition
In short: as §1

Blackgrass [8] = experiment: post-emergence herbicide test; conditions: Alopecurus myosuroides, post-emergence, 0.25 lb/A; read-out: % plant inhibition
In short: as §1

Barnyardgrass [9] = experiment: post-emergence herbicide test; conditions: Echinochloa crus-galli, post-emergence, 0.25 lb/A; read-out: % plant inhibition
In short: as §1

Downy Brome [10] = experiment: post-emergence herbicide test; conditions: Bromus tectorum, post-emergence, 0.25 lb/A; read-out: % plant inhibition
In short: as §1

Cocklebur [11] = experiment: post-emergence herbicide test; conditions: Xanthium strumarium, post-emergence, 0.25 lb/A; read-out: % plant inhibition
In short: as §1

Birdseye Speedwell [12] = experiment: post-emergence herbicide test; conditions: post-emergence, 0.25 lb/A; read-out: % plant inhibition
In short: as §1

Common Chickweed [13] = experiment: post-emergence herbicide test; conditions: post-emergence, 0.25 lb/A; read-out: % plant inhibition
In short: as §1

Seedling Johnsongrass [14] = experiment: post-emergence herbicide test; conditions: Sorghum halepense, post-emergence, 0.25 lb/A; read-out: % plant inhibition
In short: as §1

Green Foxtail [15] = experiment: post-emergence herbicide test; conditions: Setaria viridis, post-emergence, 0.25 lb/A; read-out: % plant inhibition
In short: as §1

Morning Glory [16] = experiment: post-emergence herbicide test; conditions: Ipomoea, post-emergence, 0.25 lb/A; read-out: % plant inhibition
In short: as §1

Bedstraw Catchweed [17] = experiment: post-emergence herbicide test; conditions: Galium aparine, post-emergence, 0.25 lb/A; read-out: % plant inhibition
In short: as §1

Rape [18] = experiment: pre-emergence herbicide test; conditions: pre-emergence, 0.25 lb/A; read-out: % plant inhibition
In short: (§2)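 Soil-applied pre-emergence screen: compound added to cover topsoil over sown seeds, pans held on greenhouse bench with subirrigation, % inhibition scored ~2 weeks later.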

Soybean [19] = experiment: pre-emergence herbicide test; conditions: Glycine max, pre-emergence, 0.25 lb/A; read-out: % plant inhibition
In short: as §2

Velvetleaf [20] = experiment: pre-emergence herbicide test; conditions: Abutilon theophrasti, pre-emergence, 0.25 lb/A; read-out: % plant inhibition
In short: as §2

Corn [21] = experiment: pre-emergence herbicide test; conditions: Zea mays, pre-emergence, 0.25 lb/A; read-out: % plant inhibition
In short: as §2

Wild Oats [22] = experiment: pre-emergence herbicide test; conditions: Avena fatua, pre-emergence, 0.25 lb/A; read-out: % plant inhibition
In short: as §2

Giant Foxtail [23] = experiment: pre-emergence herbicide test; conditions: Setaria faberi, pre-emergence, 0.25 lb/A; read-out: % plant inhibition
In short: as §2

Wheat [24] = experiment: pre-emergence herbicide test; conditions: Triticum aestivum, pre-emergence, 0.25 lb/A; read-out: % plant inhibition
In short: as §2

Blackgrass [25] = experiment: pre-emergence herbicide test; conditions: Alopecurus myosuroides, pre-emergence, 0.25 lb/A; read-out: % plant inhibition
In short: as §2

Barnyardgrass [26] = experiment: pre-emergence herbicide test; conditions: Echinochloa crus-galli, pre-emergence, 0.25 lb/A; read-out: % plant inhibition
In short: as §2

Downy Brome [27] = experiment: pre-emergence herbicide test; conditions: Bromus tectorum, pre-emergence, 0.25 lb/A; read-out: % plant inhibition
In short: as §2

Cocklebur [28] = experiment: pre-emergence herbicide test; conditions: Xanthium strumarium, pre-emergence, 0.25 lb/A; read-out: % plant inhibition
In short: as §2

Birdseye Speedwell [29] = experiment: pre-emergence herbicide test; conditions: pre-emergence, 0.25 lb/A; read-out: % plant inhibition
In short: as §2

Common Chickweed [30] = experiment: pre-emergence herbicide test; conditions: pre-emergence, 0.25 lb/A; read-out: % plant inhibition
In short: as §2

Seedling Johnsongrass [31] = experiment: pre-emergence herbicide test; conditions: Sorghum halepense, pre-emergence, 0.25 lb/A; read-out: % plant inhibition
In short: as §2

Green Foxtail [32] = experiment: pre-emergence herbicide test; conditions: Setaria viridis, pre-emergence; 0.25 lb/A; read-out: % plant inhibition
In short: as §2

Morning Glory [33] = experiment: pre-emergence herbicide test; conditions: Ipomoea, pre-emergence, 0.25 lb/A; read-out: % plant inhibition
In short: as §2

Bedstraw Catchweed [34] = experiment: pre-emergence herbicide test; conditions: Galium aparine, pre-emergence, 0.25 lb/A; read-out: % plant inhibition
In short: as §2

Row | SMILES | inhibition at 280.212 g/ha (Rape [1]) [%] | inhibition at 280.212 g/ha (Soybean [2]) [%] | inhibition at 280.212 g/ha (Velvetleaf [3]) [%] | inhibition at 280.212 g/ha (Corn [4]) [%] | inhibition at 280.212 g/ha (Wild Oats [5]) [%] | inhibition at 280.212 g/ha (Giant Foxtail [6]) [%] | inhibition at 280.212 g/ha (Wheat [7]) [%] | inhibition at 280.212 g/ha (Blackgrass [8]) [%] | inhibition at 280.212 g/ha (Barnyardgrass [9]) [%] | inhibition at 280.212 g/ha (Downy Brome [10]) [%] | inhibition at 280.212 g/ha (Cocklebur [11]) [%] | inhibition at 280.212 g/ha (Birdseye Speedwell [12]) [%] | inhibition at 280.212 g/ha (Common Chickweed [13]) [%] | inhibition at 280.212 g/ha (Seedling Johnsongrass [14]) [%] | inhibition at 280.212 g/ha (Green Foxtail [15]) [%] | inhibition at 280.212 g/ha (Morning Glory [16]) [%] | inhibition at 280.212 g/ha (Bedstraw Catchweed [17]) [%] | inhibition at 280.212 g/ha (Rape [18]) [%] | inhibition at 280.212 g/ha (Soybean [19]) [%] | inhibition at 280.212 g/ha (Velvetleaf [20]) [%] | further results
1 | COC(=O)CSCc1cc(-c2nn(C)c(C(F)(F)F)c2C)c(F)cc1Cl [Compound 31] | 75 | 35 | 99 | 50 | 35 | 50 | 20 | 20 | 70 | 55 | 99 | 100 | 95 | 90 | 75 | 80 | 70 | 5 | 3 | 80 | inhibition at 280.212 g/ha (Corn [21]): 10%; inhibition at 280.212 g/ha (Wild Oats [22]): 5%; inhibition at 280.212 g/ha (Giant Foxtail [23]): 10%; inhibition at 280.212 g/ha (Wheat [24]): 0%; inhibition at 280.212 g/ha (Blackgrass [25]): 5%; inhibition at 280.212 g/ha (Barnyardgrass [26]): 5%; inhibition at 280.212 g/ha (Downy Brome [27]): 5%; inhibition at 280.212 g/ha (Cocklebur [28]): 15%; inhibition at 280.212 g/ha (Birdseye Speedwell [29]): 25%; inhibition at 280.212 g/ha (Common Chickweed [30]): 25%; inhibition at 280.212 g/ha (Seedling Johnsongrass [31]): 40%; inhibition at 280.212 g/ha (Green Foxtail [32]): 20%; inhibition at 280.212 g/ha (Morning Glory [33]): 45%; inhibition at 280.212 g/ha (Bedstraw Catchweed [34]): 30%
2 | C#CCOC(=O)c1cc(-c2nn(C)c(C(F)(F)F)c2C)c(F)cc1Cl [Compound 42] | 40 | 10 | 98 | 25 | 20 | 0 | 15 | 20 | 65 | 30 | 85 | 95 | 95 | 45 | 40 | 70 | 100 | 5 | 0 | 65 | inhibition at 280.212 g/ha (Corn [21]): 5%; inhibition at 280.212 g/ha (Wild Oats [22]): 5%; inhibition at 280.212 g/ha (Giant Foxtail [23]): 0%; inhibition at 280.212 g/ha (Wheat [24]): 0%; inhibition at 280.212 g/ha (Blackgrass [25]): 15%; inhibition at 280.212 g/ha (Barnyardgrass [26]): 35%; inhibition at 280.212 g/ha (Downy Brome [27]): 10%; inhibition at 280.212 g/ha (Cocklebur [28]): 65%; inhibition at 280.212 g/ha (Birdseye Speedwell [29]): 30%; inhibition at 280.212 g/ha (Common Chickweed [30]): 40%; inhibition at 280.212 g/ha (Seedling Johnsongrass [31]): 0%; inhibition at 280.212 g/ha (Green Foxtail [32]): 95%; inhibition at 280.212 g/ha (Morning Glory [33]): 60%; inhibition at 280.212 g/ha (Bedstraw Catchweed [34]): 80%
3 | Cc1cc(-c2nn(C)c(C(F)(F)F)c2C)c(O)cc1Cl [Compound 16] | 0 | 0 | 0 | 0 | 0 | 0 | 0 | 5 | 0 | 0 | 0 | 30 | 50 | 0 | 0 | 5 | 25 | 55 | 0 | 0 | inhibition at 280.212 g/ha (Corn [21]): 0%; inhibition at 280.212 g/ha (Wild Oats [22]): 20%; inhibition at 280.212 g/ha (Giant Foxtail [23]): 0%; inhibition at 280.212 g/ha (Wheat [24]): 0%; inhibition at 280.212 g/ha (Blackgrass [25]): 15%; inhibition at 280.212 g/ha (Barnyardgrass [26]): 0%; inhibition at 280.212 g/ha (Downy Brome [27]): 20%; inhibition at 280.212 g/ha (Cocklebur [28]): 0%; inhibition at 280.212 g/ha (Birdseye Speedwell [29]): 100%; inhibition at 280.212 g/ha (Common Chickweed [30]): 95%; inhibition at 280.212 g/ha (Seedling Johnsongrass [31]): 0%; inhibition at 280.212 g/ha (Green Foxtail [32]): 10%; inhibition at 280.212 g/ha (Morning Glory [33]): 0%; inhibition at 280.212 g/ha (Bedstraw Catchweed [34]): 45%

From patent publication US5672715A, “Herbicidal substituted 3-aryl-pyrazoles” (Monsanto Company, priority 1995, dated 1997)
